Measurements reported in patent publication US10968462B2, “Plants having increased tolerance to herbicides” (BASF AGRO B.V., priority 2013, dated 2021).
Values joined by “and” are separate entries in the source; they are usually repeats but may differ in a detail not shown here. Equal entries are not always repeated.

Test system: transgenic soybean cv Jake
Assay: Soybean greenhouse spray test, clones from T0 individuals, injury 0-9 point scale 1 week after treatment (Table 7A)
Format: in vivo, Glycine max
Procedure: Soybean cv Jake was transformed as previously described by Siminszky et al., Phytochem Rev. 5:445-458 (2006). After regeneration, transformants were transplanted to soil in small pots, placed in growth chambers (16 hr day/8 hr night; 25° C. day/23° C. night; 65% relative humidity; 130-150 microE m-2 s-1) and subsequently tested for the presence of the T-DNA via Taqman analysis. After a few weeks, healthy, transgenic positive, single copy events were transplanted to larger pots and allowed to grow in the growth chamber. An optimal shoot for cutting was about 3-4 inches tall, with at least two nodes present. Each cutting was taken from the original transformant (mother plant) and dipped into rooting hormone powder (indole-3-butyric acid, IBA). The cutting was then placed in oasis wedges inside a bio-dome. The mother plant was taken to maturity in the greenhouse and harvested for seed. Wild type cuttings were also taken simultaneously to serve as negative controls. The cuttings were kept in the bio-dome for 5-7 days and then transplanted to 3 inch pots and then acclimated in the growth chamber for two more days. […] Other herbicides, such as AHAS (ALS—Acetolactate Synthase) inhibiting herbicides were also tested in a similar fashion for confirming cross resistance to other modes of action: Tritosulfuron, Florasulam, Metsulfuron, Rimsulfuron. Herbicide injury evaluations were taken at 2, 7, 14 and 21 days after treatment.
• 0 No Injury • 1 Minimal injury, only a few patches of leaf injury or chlorosis. • 2 Minimal injury with slightly stronger chlorosis. Overall growth points remain undamaged. • 3 Slightly stronger injury on secondary leaf tissue, but primary leaf and growth points are still undamaged. • 4 Overall plant morphology is slightly different, some chlorosis and necrosis in secondary growth points and leaf tissue. Stems are intact. Regrowth is highly probable within 1 week. • 5 Overall plant morphology is clearly different, some chlorosis and necrosis on a few leaves and growth points, but primary growth point is intact. Stem tissue is still green. Regrowth is highly probably within 1 week. • 6 Strong injury can be seen on the new leaflet growth. Plant has a high probability to survive only through regrowth at different growth points. Most of the leaves are chlorotic/necrotic but stem tissue is still green. May have regrowth but with noticeable injured appearance. • 7 Most of the active growth points are necrotic. There may be a single growth point that could survive and may be partially chlorotic or green and partially necrotic. Two leaves may still be chlorotic with some green; the rest of the plant including stem is necrotic. • 8 Plant will likely die, and all growth points are necrotic. One leaf may still be chlorotic with some green. The remainder of the plant is necrotic. • 9 Plant is dead. • * Not tested

In the case of `CC(C)N(C)S(=O)(=O)NC(=O)c1cc(-n2c(=O)cc(C(F)(F)F)n(C)c2=O)c(F)cc1Cl` [Saflufenacil, saflufenacil], the “injury (0-9 point scale) 1 week after treatment” value (“injury (0-9 point scale) 1 week” below) (Saflufenacil 12.5 g ai/ha, GOI AmtuPPX2L_F420L stacked with Bradi_1g07930.1_Zm) is reported as 6 and 5 and 0 (2×) and 1 (2×), the “injury (0-9 point scale) 1 week” value (Saflufenacil 12.5 g ai/ha, GOI Bradi_1g07930.1_Zm) is reported as 4 (2×) and 1 and 6 (3×) and 0 and the “injury (0-9 point scale) 1 week” value (Saflufenacil 25 g ai/ha, GOI AmtuPPX2L_F420L stacked with Bradi_1g07930.1_Zm) is reported as 6 and 0 (2×) and 2 (2×). For the same molecule, the “injury (0-9 point scale) 1 week” value (Saflufenacil 25 g ai/ha, GOI Bradi_1g07930.1_Zm) was 6 (4×) and 5 (2×) and 1, the “injury (0-9 point scale) 1 week” value (Saflufenacil 50 g ai/ha, GOI AmtuPPX2L_F420L stacked with Bradi_1g07930.1_Zm) was 5 (2×) and 6 and 1 (3×) and 2 (3×) and the “injury (0-9 point scale) 1 week” value (Saflufenacil 50 g ai/ha, GOI AmtuPPX2L_R128A_F420L stacked with Bradi_1g07930.1_Zm) was 1. The “injury (0-9 point scale) 1 week” value (Saflufenacil 50 g ai/ha, GOI AmtuPPX2L_R128A_F420V stacked with Bradi_1g07930.1_Zm) was 1 (4×) and 2 (2×) and 6 and 4 and 3, the “injury (0-9 point scale) 1 week” value (Saflufenacil 50 g ai/ha, GOI Bradi_1g07930.1_Zm) was 6 (2×) and 5 and the “injury (0-9 point scale) 1 week” value (Saflufenacil 100 g ai/ha, GOI AmtuPPX2L_F420L stacked with Bradi_1g07930.1_Zm) was 3 and 6 and 2. The “injury (0-9 point scale) 1 week” value (Saflufenacil 100 g ai/ha, GOI AmtuPPX2L_R128A_F420L stacked with Bradi_1g07930.1_Zm) was 0 and 3 and 1 (3×) and 2 (4×) and 6 and 4, the “injury (0-9 point scale) 1 week” value (Saflufenacil 100 g ai/ha, GOI AmtuPPX2L_R128A_F420V stacked with Bradi_1g07930.1_Zm) was 3 (5×) and 0 and 1 and 7 and 2 and 5 and 4 and the “injury (0-9 point scale) 1 week” value (Saflufenacil 100 g ai/ha, GOI Bradi_1g07930.1_Zm) was 8 and 6. For the same molecule, the “injury (0-9 point scale) 1 week” value (Saflufenacil 200 g ai/ha, GOI AmtuPPX2L_F420L stacked with Bradi_1g07930.1_Zm) was 2 (2×) and 6, the “injury (0-9 point scale) 1 week” value (Saflufenacil 200 g ai/ha, GOI AmtuPPX2L_R128A_F420L stacked with Bradi_1g07930.1_Zm) was 1 and 5 (2×) and 3 (2×) and 2 (4×) and 0 and 4 and the “injury (0-9 point scale) 1 week” value (Saflufenacil 200 g ai/ha, GOI AmtuPPX2L_R128A_F420V stacked with Bradi_1g07930.1_Zm) was 2 (4×) and 5 (2×) and 3 (2×) and 7 and 6 and 8.
